According to patent US4703055A, “Benzamides and therapeutic use thereof” (Societe d'Etudes Scientifiques et Industrielles de …, priority 1985, dated 1987):
Structures can show the parent of a compound that is named as a salt. Where two headings read alike, the source gives them in different places.

Assays:
[1] = test system: stereotyped movements induced by apomorphine; assay: Antagonism of stereotyped movements induced by apomorphine in rats (central antidopaminergic effect); assay type: in vivo
Procedure: Another pharmacological study was conducted to determine the central antidopaminergic effects of the compounds of the invention, by evaluating the power of their antagonistic effect in regard to the stereotyped movements induced by apomorphine in two different doses (1.25 mg/kg/IV and 0.5 mg/kg/SC) in rats. The tests were conducted according to conventional procedures.

[2] = in vivo, sc
in vivo [3] = details: mouse, male mice, intravenous, as base, read-out: LD50 in mg/kg (base) intravenously
Procedure: The compounds according to the invention were the subject of a toxicological study to determine the lethal doses (LD50) in male mice, the compounds being administered intravenously. Metoclopramide was employed as a standard. The compounds of […] were tested.
Table (I) sets out the values with respect to said (LD50) tests.

Solubility of crystals = assay type: physicochemical
in vivo [4] = details: sc
[5] = Rattus norvegicus, ip, I.P., read-out: inhibitor effect on stereotypies in regard to apomorphine, Intraperitoneal (I.P)
[6] = I.P., at 64 mg/kg, result in words
[7] = Rattus norvegicus, ip, I.P., at 64 mg/kg, read-out: inhibitor effect on stereotypies in regard to apomorphine, Intraperitoneal (I.P)

Structure (SMILES)	Cataleptic Activity (Subcutaneous) ([2]; 200 mg/kg)	Stereotypies in regard to apomorphine, Subcutaneous (S.C.) ([1]; S.C., at 200 mg/kg)	LD50 (in vivo [3]) [mg/kg]	inhibition in vivo at 64 mg/kg [1, 7] [%]	other results
COc1cc(N)c(Cl)cc1C(=O)NCC1=NCCN1CC1CC1 [Example 4, N-[(1-CYCLOPROPYLMETHYL 2-IMIDAZOLIN-2-YL)METHYL] 2-METHOXY 4-AMINO 5-CHLOROBENZAMIDE]	inactive				inhibition in vivo at 32 mg/kg [1, 5]: 26%; Stereotypies in regard to apomorphine, Subcutaneous (S.C.) ([1]; S.C., at 100 mg/kg): inactive
CCN1CCN=C1CN(C)C(=O)c1cc(Cl)c(N)cc1OC [Example 7, N-METHYL N-[(1-ETHYL 2-IMIDAZOLIN-2-YL)METHYL] 2-METHOXY 4-AMINO 5-CHLOROBENZAMIDE METHANE SULPHONATE]	inactive	inactive	23.4 to 24.4		Stereotypies in regard to apomorphine, Intraperitoneal (I.P) [1, 6]: inactive
CCN1CCN=C1CNC(=O)c1cc(Cl)c(N)cc1O [Example 12, N-[(1-ETHYL 2-IMIDAZOLIN-2-YL)METHYL]2-HYDROXY 4-AMINO 5-CHLOROBENZAMIDE HYDROCHLORIDE]	inactive	inactive	59.3		inhibition in vivo at 54 mg/kg ([1]; Rattus norvegicus, ip, I.P., at 54 mg/kg, read-out: inhibitor effect on stereotypies in regard to apomorphine, Intraperitoneal (I.P)): 2%
C=CCN1CCN=C1CNC(=O)c1cc(Cl)c(N)cc1OC [Example 2, N-[(1-ALLYL 2-IMIDAZOLIN-2-YL)METHYL] 2-METHOXY 4-AMINO 5-CHLOROBENZAMIDE]	inactive		31.8		
COc1cc(N)c(Cl)cc1C(=O)NCC1=NCCN1CC1=CCCCC1 [Example 13, N-[1-CYCLOHEXEN-1-YL-METHYL)2-(IMIDAZOLIN-2-YL)METHYL]2-METHOXY 4-AMINO 5-CHLOROBENZAMIDE]	inactive	inactive	61.6	18	
CCN1CCN=C1C(C)NC(=O)c1cc(Cl)c(N)cc1OC (stereo not drawn) [Example 14, N-[1-(ethyl 2-imidazolin-2-yl)ethyl]2-methoxy 4-amino 5-chlorobenzamide]			14.6		Stereotypies in regard to apomorphine, Intraperitoneal (I.P) ([1]; I.P., at 40 mg/kg): inactive; Stereotypies in regard to apomorphine, Subcutaneous (S.C.) ([1]; S.C., at 80 mg/kg): inactive; Cataleptic Activity (Subcutaneous) ([2]; 80 mg/kg): inactive
CCN1CCN=C1CNC(=O)c1cc(Br)c(N)cc1OC [Example 6, N-[(1-ETHYL 2-IMIDAZOLIN-2-YL)METHYL] 2-METHOXY 4-AMINO 5-BROMOBENZAMIDE]		inactive			inhibition in vivo at 32 mg/kg [1, 5]: 20%; Cataleptic Activity (Subcutaneous) ([2]; 100 mg/kg): inactive
COc1cc(N)c(Cl)cc1C(=O)NCC1=NCCN1C [Example 8, N-[(1-METHYL 2-IMIDAZOLIN-2-YL)METHYL]2-METHOXY 4-AMINO 5-CHLOROBENZAMIDE HYDROCHLORIDE]	inactive	inactive		8	
C=CCOc1cc(N)c(Cl)cc1C(=O)NCC1=NCCN1CC [Example 5, N-[(1-ETHYL 2-IMIDAZOLIN-2-YL)METHYL] 2-ALLYLOXY 4-AMINO 5-CHLOROBENZAMIDE]	inactive	inactive	25.5 to 26.1		inhibition in vivo at 32 mg/kg [1, 5]: 8%
CCN1CCN=C1CNC(=O)c1cc(Cl)c(N)cc1OC [Example 1, N-[(1-ETHYL 2-IMIDAZOLIN-2-YL)METHYL] 2-METHOXY 4-AMINO 5-CHLOROBENZAMIDE]	inactive	inactive	27.1 to 27.2		Stereotypies in regard to apomorphine, Intraperitoneal (I.P) ([1]; I.P., at 50 mg/kg): inactive; solubility in chloroform (Solubility of crystals; chloroform): highly soluble; solubility in dilute acetic acid (Solubility of crystals; dilute acetic acid): soluble
CCN1CC(C)N=C1CNC(=O)c1cc(Cl)c(N)cc1OC (stereo not drawn) [Example 9, N-[(1-ETHYL 4-METHYL 2-IMIDAZOLIN-2-YL)METHYL] 2-METHOXY 4-AMINO 5-CHLOROBENZAMIDE]	inactive			5	Stereotypies in regard to apomorphine, Subcutaneous (S.C.) ([1]; S.C., at 100 mg/kg): inactive
CCN1CC(C)(C)N=C1CNC(=O)c1cc(Cl)c(N)cc1OC [Example 11, N-[(1-ETHYL 4-DIMETHYL 2-IMIDAZOLIN-2-YL)METHYL]2-METHOXY 4-AMINO 5-CHLOROBENZAMIDE]	inactive	inactive	30.4		Stereotypies in regard to apomorphine, Intraperitoneal (I.P) [1, 6]: inactive
COc1cc(N)c(Cl)cc1C(=O)NCC1=NCCN1Cc1ccccc1 [Example 3, N-[(1-benzyl 2-imidazolin-2-yl)methyl] 2-methoxy 4-amino 5-chlorobenzamide Hydrochloride]	inactive	inactive	47.8 to 48.5	19	
COc1cc(N)c(Cl)cc1C(=O)NCC1=NCCN1 [Example 10, N-[(2-IMIDAZOLIN-2-YL)METHYL] 2-METHOXY 4-AMINO 5-CHLOROBENZAMIDE NITRATE]	inactive		38.4 to 41.9	4	Stereotypies in regard to apomorphine, Subcutaneous (S.C.) ([1]; S.C., at 100 mg/kg): inactive
CCN(CC)CCNC(=O)c1cc(Cl)c(N)cc1OC [METOCLOPRAMIDE, Metoclopramide, reference compound]			37.9		TD50 (in vivo [4]): 30 to 38 mg/kg; ED50 ([1]; Rattus norvegicus, ip, I.P., read-out: ID50, stereotypies in regard to apomorphine, Intraperitoneal (I.P)): 2 to 2.6 mg/kg; ED50 ([1]; Rattus norvegicus, sc, S.C., read-out: ID50, stereotypies in regard to apomorphine, Subcutaneous (S.C.)): 15 to 15.2 mg/kg; antagonism of apomorphine stereotypies (in words) ([1]; same conditions): marked stereotypy inhibitor capacity
